Structures are written as SMILES.

This passage reports bioavailability results from patent publication EP0942721B1, “LIQUID COMPOSITION COMPRISING AN HIV PROTEASE INHIBITOR AND A C12-C18 FATTY ACID” (Abbott Laboratories, priority 1996, dated 1998).

A short description of this series: Oral bioavailability studies in dogs. Type of series: in vivo, beagle dogs. The conditions noted are these: dog, administered as an unformulated solid in a capsule dosage form, 5 mg/kg oral dose in dogs. On the procedure:
Dogs (beagle dogs, mixed sexes, weighing 7-14 kg) were fasted overnight prior to dosing, but were permitted water ad libitum. Each dog received a 100 µg/kg subcutaneous dose of histamine approximately 30 minutes prior to dosing. Each dog received a single solid dosage form corresponding to a 5 mg/kg dose of the drug. The dose was followed by approximately 10 milliliters of water. Blood samples were obtained from each animal prior to dosing and 0.25, 0.5, 1.0,1.5, 2, 3, 4, 6, 8, 10 and 12 hours after drug administration. The plasma was separated from the red cells by centrifugation and frozen (-30°C) until analysis. Concentrations of parent drug were determined by reverse phase HPLC with low wavelength UV detection following liquid-liquid extraction of the plasma samples. The parent drug area under the curve was calculated by the trapezoidal method over the time course of the study. The absolute bioavailability of each test composition was calculated by comparing the area under the curve after oral dosing to that obtained from a single intravenous dose. Each capsule or capsule composition was evaluated in a group containing at least six dogs; the values reported are averages for each group of dogs.

`CC(C)c1nc(CN(C)C(=O)N[C@H](C(=O)N[C@@H](Cc2ccccc2)C[C@H](O)[C@H](Cc2ccccc2)NC(=O)OCc2cncs2)C(C)C)cs1` [bis-tosylate of compound III] yielded a bioavailability at 12 h (in vivo) below 2%.

In the case of `CC(C)c1nc(CN(C)C(=O)N[C@H](C(=O)N[C@@H](Cc2ccccc2)C[C@H](O)[C@H](Cc2ccccc2)NC(=O)OCc2cncs2)C(C)C)cs1` [compound III, (2S,3S,5S)-5-(N-(N-((N-Methyl-N-((2-isopropyl-4-thiazolyl)methyl)-amino)carbonyl)valinyl)amino)-2-(N-((5-thiazolyl)methoxycarbonyl)amino)-1,6-diphenyl-3-hydroxyhexane], the bioavailability (both sexes, beagle, plasma) was below 2%.
